Earlier results, collected in US12390432B2, “Methods for treating allan-herndon-dudley syndrome” (PriZm, LLC, priority 2022, dated 2025).

Details: literature report, Groeneweg et al. Lancet Diabetes Endocrinol. 2019; cited from earlier work

SMILES: O=C(O)Cc1cc(I)c(Oc2ccc(O)c(I)c2)c(I)c1 [TRIAC, triiodothyroacetic acid]
- thyroxine (T4) serum levels: significantly reduce
